Some test systems named below: MOLT-4; DU-145; K562; SK-MEL-5; TK-10; 786-0; UACC-62; OVCAR-4; CCRF-CEM; HL-60; CAKI-1; NCI-H226; UACC-257; RPMI-8226; Malme-3M; SK-MEL-2; OVCAR-5; MCF7; RXF 393; SR.
Holding throughout (experiment): NCI tumour cell line growth inhibition, 48 h

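A five-concentration, 48-hour dose response in 96-well plates underlies each endpoint, interpolated linearly between surrounding concentrations. GI50 = concentration required for 50% inhibition of growth.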 Calls of active or inactive are those of the source. No stated cut-off is given here; in the data, active = GI50 up to about 1.1 µM and inactive = higher.

The values below come from ChEMBL document CHEMBL1201862, “PubChem BioAssay data set” (2004).

As for `Cc1cn([C@@H]2O[C@H](CO[Si](C)(C)C(C)(C)C)[C@]3(O[C@H]3C(=O)NN)[C@H]2O[Si](C)(C)C(C)(C)C)c(=O)[nH]c1=O`, the GI50 with MOLT-4 was 2.04 µM (inactive); with DU-145 it was 6.31 µM (inactive); with K562 it was 2.75 µM (inactive); in the experiment on SK-MEL-5 it was 10.4 µM (inactive); in the experiment on TK-10 it was 12.7 µM (inactive); in the experiment with 786-0 it was 4.06 µM (inactive). Also, the GI50 in the experiment with UACC-62 was 10.6 µM (inactive); with OVCAR-4, 6.4 µM (inactive); with CCRF-CEM it was 2.42 µM (inactive); in the experiment with HL-60, 3.13 µM (inactive); in the experiment with CAKI-1, 11.6 µM (inactive); in the experiment on NCI-H226, 12 µM (inactive). The GI50 in the experiment with UACC-257 was 13 µM (inactive); in the experiment with RPMI-8226, 4.29 µM (inactive); in the experiment with Malme-3M, 3.39 µM (inactive); in the experiment with SK-MEL-2 it was 6.37 µM (inactive); in the experiment with OVCAR-5, 8.55 µM (inactive); in the experiment on MCF7 it was 4.26 µM (inactive).

Turning to `Clc1ccc(CSC2=NCCN2)cc1Cl`, the GI50 with MOLT-4 is 11.2 µM (inactive); in the experiment with DU-145, 14.7 µM (inactive); in the experiment on K562 it was 13.5 µM (inactive); in the experiment on SK-MEL-5, 12.7 µM (inactive); with TK-10, 16.7 µM (inactive); in the experiment with 786-0, 11.6 µM (inactive). For the same compound, the GI50 was 15.9 µM (inactive) in the experiment on UACC-62; 11.6 µM (inactive) in the experiment on OVCAR-4; 5.36 µM (inactive) in the experiment on CCRF-CEM; 14.2 µM (inactive) in the experiment on RXF 393; 10.9 µM (inactive) in the experiment on HL-60; 11.2 µM (inactive) in the experiment on CAKI-1. The GI50 in the experiment on NCI-H226 is 20.7 µM (inactive); in the experiment on UACC-257 it was 11.1 µM (inactive); in the experiment with RPMI-8226, 6.75 µM (inactive); with Malme-3M, 13 µM (inactive); in the experiment on OVCAR-5 it was 19.3 µM (inactive); in the experiment on MCF7 it was 11.1 µM (inactive).

Regarding `CC1(O)CC23CC(O)C4(O)C(CC(O)C4(C)C)C(C)(O)C2CCC1C3O` (stereo not drawn), the GI50 in the experiment on MOLT-4, in the experiment on DU-145, with K562, in the experiment on SK-MEL-5, in the experiment with TK-10 and with 786-0 was > 100 µM (inactive) throughout. The GI50 with UACC-62, in the experiment with OVCAR-4, in the experiment with CCRF-CEM, with HL-60, in the experiment with CAKI-1 and in the experiment with NCI-H226 was > 100 µM (inactive) in each case. In addition, the GI50 in the experiment on UACC-257, with SR, in the experiment on Malme-3M, with SK-MEL-2, with OVCAR-5 and in the experiment on MCF7 was > 100 µM (inactive) each time.

Turning to `COc1ccc([S+]([O-])Cc2cc(OC)ccc2OC)cc1` (stereo not drawn), the GI50 with MOLT-4, in the experiment on DU-145, with K562, in the experiment with TK-10, in the experiment on 786-0 and in the experiment with UACC-62 was > 100 µM (inactive) each time. In addition, the GI50 in the experiment with OVCAR-4, with CCRF-CEM, in the experiment with RXF 393, in the experiment with CAKI-1, with NCI-H226 and in the experiment with UACC-257 was > 100 µM (inactive) throughout. Further, the GI50 in the experiment with Malme-3M, in the experiment on OVCAR-5 and in the experiment on MCF7 was > 100 µM (inactive) throughout.

As to `COc1cc2c(cc1OC)C1Cc3ccccc3CCN1CC2` (stereo not drawn), the GI50 with MOLT-4 is 35.1 µM (inactive); in the experiment on DU-145, > 100 µM (inactive); in the experiment with K562, 62.1 µM (inactive); in the experiment on SK-MEL-5, 58.1 µM (inactive); with TK-10 it was > 100 µM (inactive); with 786-0 it was 50 µM (inactive). The GI50 with UACC-62 is > 100 µM (inactive); with OVCAR-4 it was > 100 µM (inactive); in the experiment on CCRF-CEM, > 100 µM (inactive); with HL-60, > 100 µM (inactive); in the experiment on CAKI-1, > 100 µM (inactive); with NCI-H226, 60.4 µM (inactive). Besides, the GI50 was > 100 µM (inactive) in the experiment with UACC-257; 92.9 µM (inactive) in the experiment with SR; > 100 µM (inactive) in the experiment on RPMI-8226; > 100 µM (inactive) with Malme-3M; > 100 µM (inactive) with SK-MEL-2; > 100 µM (inactive) in the experiment with OVCAR-5. The GI50 in the experiment with MCF7 is > 100 µM (inactive).

Turning to `CCN(CC)C(=O)CCNC(C)Cc1c[nH]c2ccccc12` (stereo not drawn), the GI50 with MOLT-4, in the experiment with DU-145, with K562, in the experiment on SK-MEL-5, with TK-10 and with 786-0 was > 100 µM (inactive) each time. For the same compound, the GI50 in the experiment with UACC-62, with OVCAR-4, with CCRF-CEM, with RXF 393, with HL-60 and in the experiment with CAKI-1 was > 100 µM (inactive) throughout. For the same compound, the GI50 in the experiment on NCI-H226, with UACC-257, in the experiment with SR, in the experiment on RPMI-8226, in the experiment on Malme-3M and in the experiment with SK-MEL-2 was > 100 µM (inactive) each time. Also, in the experiment with OVCAR-5, the GI50 is > 100 µM (inactive).

Turning to `CC(NC(=O)OC(C)(C)C)C(=O)C(N)=O` (stereo not drawn), the GI50 in the experiment on MOLT-4, with DU-145, with K562, with SK-MEL-5, in the experiment with TK-10 and with 786-0 was > 100 µM (inactive) each time. Moreover, the GI50 is > 100 µM (inactive) in the experiment on CCRF-CEM; > 100 µM (inactive) in the experiment on HL-60; > 100 µM (inactive) in the experiment on NCI-H226; 38.6 µM (inactive) in the experiment with SR; > 100 µM (inactive) in the experiment on RPMI-8226; > 100 µM (inactive) with SK-MEL-2. Besides, the GI50 in the experiment with OVCAR-5 and with MCF7 was > 100 µM (inactive) in each case.

As to `COc1ccc(/C=C/C(=O)c2ccc(Br)cc2)cc1`, the GI50 in the experiment with MOLT-4 was 59.3 µM (inactive); with DU-145, > 100 µM (inactive); with K562, > 100 µM (inactive); in the experiment on SK-MEL-5 it was > 100 µM (inactive); with TK-10 it was > 100 µM (inactive); in the experiment on 786-0 it was > 100 µM (inactive). Further, the GI50 is > 100 µM (inactive) in the experiment with UACC-62; > 100 µM (inactive) in the experiment on OVCAR-4; > 100 µM (inactive) in the experiment on CCRF-CEM; 66.8 µM (inactive) in the experiment on HL-60; > 100 µM (inactive) in the experiment with CAKI-1; > 100 µM (inactive) with NCI-H226. Further, the GI50 in the experiment with UACC-257 was > 10 µM (inactive); in the experiment on SR it was 84.1 µM (inactive); in the experiment on RPMI-8226, 57 µM (inactive); in the experiment on Malme-3M, > 100 µM (inactive); with SK-MEL-2 it was > 100 µM (inactive); in the experiment on OVCAR-5, 18.4 µM (inactive). In addition, the GI50 in the experiment with MCF7 is 85.7 µM (inactive).

Turning to `Cc1ccc2c(sc(-c3ccc4c(c3)sc(-c3ccc(N(C)C)cc3)[n+]4C)[n+]2C)c1S(=O)(=O)O.Cc1ccc2c(sc(-c3ccc4c(c3)sc(-c3ccc5c(c3)sc(-c3ccc(N(C)C)cc3)[n+]5C)[n+]4C)[n+]2C)c1S(=O)(=O)O`, the GI50 is 51.9 µM (inactive) in the experiment with MOLT-4; > 100 µM (inactive) with DU-145; 35.5 µM (inactive) in the experiment on K562; > 100 µM (inactive) in the experiment on SK-MEL-5; > 100 µM (inactive) in the experiment with TK-10; > 100 µM (inactive) in the experiment on 786-0. Moreover, the GI50 with UACC-62 was > 100 µM (inactive); with OVCAR-4, 43 µM (inactive); in the experiment with CCRF-CEM, 10 µM (inactive); with HL-60, 52.8 µM (inactive); in the experiment on CAKI-1, 10 µM (inactive); in the experiment with UACC-257, > 100 µM (inactive). The GI50 is 1 µM (active) with SR; 80.2 µM (inactive) in the experiment with RPMI-8226; > 100 µM (inactive) with SK-MEL-2; > 100 µM (inactive) in the experiment with OVCAR-5; > 100 µM (inactive) in the experiment on MCF7.

Take `Cc1ccc(S(=O)(=O)N/N=C2/C3CC4CCC2C4C3)cc1` (stereo not drawn): the GI50 with DU-145, with SK-MEL-5, in the experiment on TK-10, in the experiment on 786-0, in the experiment with UACC-62 and in the experiment on OVCAR-4 was > 100 µM (inactive) in each case. Moreover, the GI50 with RXF 393, in the experiment on CAKI-1, in the experiment with NCI-H226, with UACC-257, with RPMI-8226 and with Malme-3M was > 100 µM (inactive) in each case. Besides, the GI50 in the experiment with OVCAR-5 and with MCF7 was > 100 µM (inactive) in each case.

With `C=CCOc1ccc(C(/N=N\c2ccc(Cl)cc2)=N/NC(=O)c2ccccc2)cc1OC`, the GI50 in the experiment on MOLT-4 was 32.1 µM (inactive); in the experiment on DU-145, > 100 µM (inactive); in the experiment on SK-MEL-5, 29.9 µM (inactive); in the experiment on TK-10 it was > 100 µM (inactive); in the experiment on 786-0, > 100 µM (inactive); in the experiment with UACC-62, 23.8 µM (inactive). Also, the GI50 with OVCAR-4 is 76.7 µM (inactive); in the experiment on CCRF-CEM, 29.5 µM (inactive); with HL-60, 33.8 µM (inactive); in the experiment with CAKI-1, > 100 µM (inactive); in the experiment with NCI-H226 it was 53.7 µM (inactive); in the experiment with UACC-257, 41.8 µM (inactive). In addition, the GI50 is > 100 µM (inactive) with SR; 51.3 µM (inactive) in the experiment with Malme-3M; > 100 µM (inactive) with SK-MEL-2; > 100 µM (inactive) in the experiment on OVCAR-5; > 100 µM (inactive) with MCF7.
